Structures can show the parent of a compound that is named as a salt.

As usually defined, the LD50 is the dose expected to kill half of the subjects tested. The low end stands for a more toxic substance, the high end for a less toxic substance.

The nature of one series: in vivo. As to conditions: mouse, in vivo, ip. Here is the method: (§1) The acute toxicity was evaluated by intraperitoneal administration to mice. The products were suspended in a dilute pseudo-solution of carboxymethyl-cellulose.
(§2) The mortality was checked over the course of the 7 days which followed the treatment.

Another series relates to rat duodenum. Put plainly: spasmolytic activity, papaverine type (contracting agent barium chloride), technique of MAGNUS. It counts as cell-based. As to conditions: for IC50: Tyrode solution 38° C, concentration causing 50% inhibition of the contraction, compound tested (X), read-out: Spasmolytic activity, papaverine type, ED 50 (X); for Spasmolytic activity, papaverine type, ratio of ED 50 values, reference (R) to compound (X): relative to papaverine hydrochloride. Here is the method:
The spasmolytic activity was studied on the rat duodenum (1) or on the guinea pig ileum (2), kept alive in an aerated Tyrode solution heated to 38° C, in accordance with the technique of MAGNUS (Archiv. Ges. Physiol., 1905, 180, 1-71).
(1) The contracting agent used was barium chloride and the reference antagonistic agent was papaverine hydrochloride (R).

The test system of the next series is guinea pig ileum. The series is described as follows: spasmolytic activity, atropine type (contracting agent acetylcholine chloride), technique of MAGNUS. As to conditions: Cavia porcellus, read-out: Spasmolytic activity, atropine type, ED 50 (X).
In the next series the test system is mice. The series is described as follows: in vivo. As to conditions: mice, intraperitoneal, mortality over 7 days. Here is the method:
as §1, §2

Description for guinea pig ileum: (2) The contracting agent used was acetylcholine chloride and the reference antagonistic agent was atropine sulphate (R).
Again, the activity of the compounds tested (X) was compared with that of the reference agent chosen (R), by calculating the ratio of their ED 50 values.

In turn, `O=C(OCCN1CCCCC1)C(=C1CCCCC1)c1ccsc1` [Example 23, 2-Piperidino-ethyl cyclohexylidene-(thienyl-3)-acetate (hydrochloride)] yielded an LD50 at 168 h in “in vivo” of 80 mg/kg. Also, in the series on rat duodenum, the IC50 is 2.4 µg/mL and the “Spasmolytic activity, papaverine type, ratio of ED 50 values, reference (R) to compound (X)” value is reported as 1.46. Moreover, in the series on guinea pig ileum, the IC50 was 0.39 µg/mL.

For `CCN(CC)CCCOC(=O)C(c1ccc(C)s1)C1CCCCC1` (stereo not shown) [Example 20, 3-Diethylaminopropyl (5-methyl-thienyl-2)-cyclohexyl-acetate (hydrochloride)], in “in vivo”, the LD50 at 168 h was 80 mg/kg. Also, the IC50 in the series on rat duodenum is 1.1 µg/mL; in the series with guinea pig ileum, 0.009 µg/mL. Also, the “Spasmolytic activity, papaverine type, ratio of ED 50 values, reference (R) to compound (X)” value in the series with rat duodenum is listed as 5.45.

In turn, `Cc1ccc(C(C(=O)OCCCN2CCCC2)c2ccccc2)s1` (stereo not shown) [Example 21, 3-Pyrrolidino-propyl (5-methyl-thienyl-2)-phenyl-acetate (oxalate)] yielded an LD50 at 168 h in the series “in vivo” of 100 mg/kg. Also, in the series with rat duodenum, the IC50 was found to be 2.55 µg/mL and the “Spasmolytic activity, papaverine type, ratio of ED 50 values, reference (R) to compound (X)” value came to 2.16. In addition, the IC50 in the series with guinea pig ileum is 0.1 µg/mL.

Turning to `CC(C[N+]1(C)CCCC1)OC(=O)C(=C1CCCCC1)c1ccsc1.[I-]` (stereo not shown) [Example 25, 2-Pyrrolidino-isopropyl cyclohexylidene-(thienyl-3)-acetate (mono-iodomethylate)], in the series on mice, the “Acute toxicity in mice, intraperitoneal administration, LD 50” value was found to be 80 mg/kg. In the series with rat duodenum, the “Spasmolytic activity, papaverine type, ratio of ED 50 values, reference (R) to compound (X)” value amounted to 1.

In the series “in vivo”, `CCN(CC)CCCOC(=O)C(c1ccsc1C)C1CCCCC1` (stereo not shown) [Example 22, 3-Diethylaminopropyl (2-methyl-thienyl-3)-cyclohexyl-acetate hydrochloride] displayed an LD50 at 168 h of 80 mg/kg. Moreover, in the series with rat duodenum, the IC50 was determined as 0.38 µg/mL and the “Spasmolytic activity, papaverine type, ratio of ED 50 values, reference (R) to compound (X)” value turned out to be 19.75. In addition, the IC50 with guinea pig ileum is 0.0115 µg/mL.

In “in vivo”, `O=C(OCCCN1CCCCC1)C(=C1CCCCC1)c1ccsc1` [Example 24, 3-Piperidino-propyl cyclohexylidene-(thienyl-3)-acetate hydrochloride] yielded an LD50 at 168 h of 150 mg/kg. Moreover, in the series with rat duodenum, the IC50 amounted to 0.8 µg/mL and the “Spasmolytic activity, papaverine type, ratio of ED 50 values, reference (R) to compound (X)” value worked out at 1.56. For the same molecule, the IC50 in the series with guinea pig ileum worked out at 0.8 µg/mL.
